Test results published in US20080138391A1, “SKIN-FRIENDLY DRUG COMPLEXES FOR TRANSDERMAL ADMINISTRATION” (priority 2006, published 2008).

Experiment: Appearance of the composition and solubilization of the drug
Format: physicochemical
Description: Following here is an exemplary description of the manufacturing process used to make the pharmaceutical compositions of the present invention. Generally, the active agent is introduced either alone or as a solution in a colloidal dispersion of carbomer. […] If desired, further ingredients such as cosolvents, buffering agents, antioxidants, preservatives, permeation enhancers, etc, as mentioned herein above were added under mechanical stirring.

CCCN(CCC)CCc1cccc2c1CC(=O)N2 [ropinirole free base, ropinirole]
Amount of ropinirole free base solubilized in water as a result of complexation with carbomer (complexation with carbomer, alcohol-free): at least 3.00 % w/w
Solubility of ropinirole free base in water (no complexation): practically insoluble in water
